According to the supplement of paper PMC10627819:

Tests used:
Test in all cases: fitness (endpoint OD595 vs no drug) (fraction); higher = more growth
[1] = system: S. pneumoniae D39V
Procedure, shortened: (§1)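 Plates with 384 wells were inoculated at OD595 0.01 using 30 µl of TSB, LB Lennox or CY, or 55 µl for S. pneumoniae. Incubation was at 37 °C, with OD595 measured every 30 min for 14 h. Fitness is the stationary-phase transition optical density over the robust mean of no-drug control wells, after first-reading background subtraction; it is capped at 1.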

[2] = system: S. aureus DSM 20231
Procedure, shortened: as §1

[3] = system: S. aureus Newman
Procedure, shortened: as §1

[4] = first compound 0.0156 µg/mL, partner 0.0156 µg/mL
[5] = first compound 0.0156 µg/mL, partner 0.0312 µg/mL
[6] = first compound 0.0156 µg/mL, partner 0.0625 µg/mL
[7] = first compound 0.0312 µg/mL, partner 0.0156 µg/mL
[8] = first compound 0.0312 µg/mL, partner 0.0312 µg/mL
[9] = first compound 0.0312 µg/mL, partner 0.0625 µg/mL
[10] = first compound 0.0625 µg/mL, partner 0.0156 µg/mL
[11] = first compound 0.0625 µg/mL, partner 0.0312 µg/mL
[12] = first compound 0.0625 µg/mL, partner 0.0625 µg/mL

CC(=O)NC[C@H]1CN(c2ccc(N3CCOCC3)c(F)c2)C(=O)O1 [Linezolid] + CO[C@@]12[C@H](COC(N)=O)C3=C(C(=O)C(C)=C(N)C3=O)N1C[C@@H]1N[C@@H]12 [Mitomycin C]
fitness ([1]; first compound 0.105 µg/mL, partner 0.002 µg/mL): 0.745
fitness ([1]; first compound 0.105 µg/mL, partner 0.004 µg/mL): 0.669
fitness ([1]; first compound 0.105 µg/mL, partner 0.008 µg/mL): 0.524
fitness ([1]; first compound 0.2 µg/mL, partner 0.001075 µg/mL): 0.745
fitness ([1]; first compound 0.2 µg/mL, partner 0.00215 µg/mL): 0.733
fitness ([1]; first compound 0.2 µg/mL, partner 0.0043 µg/mL): 0.634
fitness ([1]; first compound 0.21 µg/mL, partner 0.002 µg/mL): 0.563
fitness ([1]; first compound 0.21 µg/mL, partner 0.004 µg/mL): 0.563
fitness ([1]; first compound 0.21 µg/mL, partner 0.008 µg/mL): 0.397
fitness ([1]; first compound 0.4 µg/mL, partner 0.001075 µg/mL): 0.618
fitness ([1]; first compound 0.4 µg/mL, partner 0.00215 µg/mL): 0.626
fitness ([1]; first compound 0.4 µg/mL, partner 0.0043 µg/mL): 0.366
fitness ([1]; first compound 0.42 µg/mL, partner 0.002 µg/mL): 0.414
fitness ([1]; first compound 0.42 µg/mL, partner 0.004 µg/mL): 0.389
fitness ([1]; first compound 0.42 µg/mL, partner 0.008 µg/mL): 0.23
fitness ([1]; first compound 0.8 µg/mL, partner 0.001075 µg/mL): 0.316
fitness ([1]; first compound 0.8 µg/mL, partner 0.00215 µg/mL): 0.323
fitness ([1]; first compound 0.8 µg/mL, partner 0.0043 µg/mL): 0.258
fitness ([2]; first compound 0.125 µg/mL, partner 0.0156 µg/mL): 0.681
fitness ([2]; first compound 0.125 µg/mL, partner 0.0312 µg/mL): 0.68
fitness ([2]; first compound 0.125 µg/mL, partner 0.0625 µg/mL): 0.531
fitness ([2]; first compound 0.25 µg/mL, partner 0.0156 µg/mL): 0.466
fitness ([2]; first compound 0.25 µg/mL, partner 0.0312 µg/mL): 0.458
fitness ([2]; first compound 0.25 µg/mL, partner 0.0625 µg/mL): 0.296
fitness ([2]; first compound 0.5 µg/mL, partner 0.0156 µg/mL): 0.141
fitness ([2]; first compound 0.5 µg/mL, partner 0.0312 µg/mL): 0.105
fitness ([2]; first compound 0.5 µg/mL, partner 0.0625 µg/mL): 0.0726
fitness ([2]; first compound 1 µg/mL, partner 0.0156 µg/mL, one replicate): 0.0176
fitness ([2]; first compound 1 µg/mL, partner 0.0312 µg/mL, one replicate): 0.0107
fitness ([2]; first compound 1 µg/mL, partner 0.0625 µg/mL, one replicate): 0.0169

CO[C@@]12[C@H](COC(N)=O)C3=C(C(=O)C(C)=C(N)C3=O)N1C[C@@H]1N[C@@H]12 [Mitomycin C] + Cc1onc(-c2ccccc2)c1C(=O)N[C@@H]1C(=O)N2[C@@H]1SC(C)(C)[C@@H]2C(=O)O [Oxacillin]
fitness [3, 4]: 0.672
fitness [3, 5]: 0.616
fitness [3, 6]: 0.485
fitness [3, 7]: 0.571
fitness [3, 8]: 0.534
fitness [3, 9]: 0.423
fitness [3, 10]: 0.421
fitness [3, 11]: 0.307
fitness [3, 12]: 0.111
fitness ([1]; first compound 0.001075 µg/mL, partner 0.01 µg/mL): 0.973
fitness ([1]; first compound 0.001075 µg/mL, partner 0.02 µg/mL): 0.957
fitness ([1]; first compound 0.002 µg/mL, partner 0.01 µg/mL): 0.838
fitness ([1]; first compound 0.002 µg/mL, partner 0.02 µg/mL): 0.764
fitness ([1]; first compound 0.002 µg/mL, partner 0.04 µg/mL): 0.219
fitness ([1]; first compound 0.00215 µg/mL, partner 0.01 µg/mL): 0.974
fitness ([1]; first compound 0.00215 µg/mL, partner 0.02 µg/mL): 0.968
fitness ([1]; first compound 0.00215 µg/mL, partner 0.04 µg/mL): 0.605
fitness ([1]; first compound 0.004 µg/mL, partner 0.01 µg/mL): 0.813
fitness ([1]; first compound 0.004 µg/mL, partner 0.02 µg/mL): 0.735
fitness ([1]; first compound 0.004 µg/mL, partner 0.04 µg/mL): 0.227
fitness ([1]; first compound 0.0043 µg/mL, partner 0.01 µg/mL): 0.891
fitness ([1]; first compound 0.0043 µg/mL, partner 0.02 µg/mL): 0.822
fitness ([1]; first compound 0.008 µg/mL, partner 0.01 µg/mL): 0.664
fitness ([1]; first compound 0.008 µg/mL, partner 0.02 µg/mL): 0.636
fitness ([1]; first compound 0.008 µg/mL, partner 0.04 µg/mL): 0.241
fitness [2, 4]: 0.586
fitness [2, 5]: 0.458
fitness [2, 6]: 0.389
fitness [2, 7]: 0.581
fitness [2, 8]: 0.499
fitness [2, 9]: 0.432
fitness [2, 10]: 0.544
fitness [2, 11]: 0.474
fitness [2, 12]: 0.348

CC[C@H](C)[C@H](N)C1=N[C@H](C(=O)N[C@@H](CC(C)C)C(=O)N[C@H](CCC(=O)O)C(=O)N[C@H](C(=O)N[C@H]2CCCCNC(=O)[C@H](CC(N)=O)NC(=O)[C@@H](CC(=O)O)NC(=O)[C@H](Cc3cnc[nH]3)NC(=O)[C@@H](Cc3ccccc3)NC(=O)[C@H]([C@@H](C)CC)NC(=O)[C@@H](CCCN)NC2=O)[C@@H](C)CC)CS1 [Bacitracin] + CC1(C)S[C@@H]2[C@H](NC(=O)Cc3ccccc3)C(=O)N2[C@H]1C(=O)O [Penicillin G]
fitness ([3]; first compound 18.75 µg/mL, partner 0.0195 µg/mL, main component drawn): 0.642
fitness ([3]; first compound 18.75 µg/mL, partner 0.039 µg/mL, main component drawn): 0.698
fitness ([3]; first compound 18.75 µg/mL, partner 0.078 µg/mL, main component drawn): 0.69
fitness ([3]; first compound 37.5 µg/mL, partner 0.0195 µg/mL, main component drawn): 0.35
fitness ([3]; first compound 37.5 µg/mL, partner 0.039 µg/mL, main component drawn): 0.2
fitness ([3]; first compound 75 µg/mL, partner 0.0195 µg/mL, main component drawn): 0.018
fitness ([3]; first compound 75 µg/mL, partner 0.039 µg/mL, main component drawn): 0.0199
fitness ([3]; first compound 75 µg/mL, partner 0.078 µg/mL, main component drawn): 0.0358

CC[C@H](C)[C@H](N)C1=N[C@H](C(=O)N[C@@H](CC(C)C)C(=O)N[C@H](CCC(=O)O)C(=O)N[C@H](C(=O)N[C@H]2CCCCNC(=O)[C@H](CC(N)=O)NC(=O)[C@@H](CC(=O)O)NC(=O)[C@H](Cc3cnc[nH]3)NC(=O)[C@@H](Cc3ccccc3)NC(=O)[C@H]([C@@H](C)CC)NC(=O)[C@@H](CCCN)NC2=O)[C@@H](C)CC)CS1 [Bacitracin] + CO[C@@]12[C@H](COC(N)=O)C3=C(C(=O)C(C)=C(N)C3=O)N1C[C@@H]1N[C@@H]12 [Mitomycin C]
fitness ([3]; first compound 18.75 µg/mL, partner 0.0156 µg/mL, main component drawn): 0.56
fitness ([3]; first compound 18.75 µg/mL, partner 0.0312 µg/mL, main component drawn): 0.419
fitness ([3]; first compound 18.75 µg/mL, partner 0.0625 µg/mL, main component drawn): 0.229
fitness ([3]; first compound 37.5 µg/mL, partner 0.0312 µg/mL, main component drawn): 0.0317
fitness ([3]; first compound 37.5 µg/mL, partner 0.0625 µg/mL, main component drawn): 0.0144
fitness ([3]; first compound 75 µg/mL, partner 0.0156 µg/mL, main component drawn): 0.0457
fitness ([3]; first compound 75 µg/mL, partner 0.0312 µg/mL, main component drawn): 0.0152
fitness ([3]; first compound 75 µg/mL, partner 0.0625 µg/mL, main component drawn): 0

CO[C@@]12[C@H](COC(N)=O)C3=C(C(=O)C(C)=C(N)C3=O)N1C[C@@H]1N[C@@H]12 [Mitomycin C] + O=C1CN(/N=C/c2ccc([N+](=O)[O-])o2)C(=O)N1 [Nitrofurantoin]
fitness ([1]; first compound 0.001075 µg/mL, partner 2 µg/mL): 0.889
fitness ([1]; first compound 0.001075 µg/mL, partner 4 µg/mL): 0.866
fitness ([1]; first compound 0.001075 µg/mL, partner 8 µg/mL): 0.803
fitness ([1]; first compound 0.002 µg/mL, partner 1.285 µg/mL): 0.896
fitness ([1]; first compound 0.002 µg/mL, partner 2.57 µg/mL): 0.839
fitness ([1]; first compound 0.002 µg/mL, partner 5.14 µg/mL, one replicate): 0.723
fitness ([1]; first compound 0.00215 µg/mL, partner 2 µg/mL): 0.883
fitness ([1]; first compound 0.00215 µg/mL, partner 4 µg/mL): 0.835
fitness ([1]; first compound 0.00215 µg/mL, partner 8 µg/mL): 0.755
fitness ([1]; first compound 0.004 µg/mL, partner 1.285 µg/mL): 0.74
fitness ([1]; first compound 0.004 µg/mL, partner 2.57 µg/mL): 0.765
fitness ([1]; first compound 0.004 µg/mL, partner 5.14 µg/mL, one replicate): 0.613
fitness ([1]; first compound 0.0043 µg/mL, partner 2 µg/mL): 0.759
fitness ([1]; first compound 0.0043 µg/mL, partner 4 µg/mL): 0.679
fitness ([1]; first compound 0.0043 µg/mL, partner 8 µg/mL): 0.554
fitness ([1]; first compound 0.008 µg/mL, partner 1.285 µg/mL): 0.588
fitness ([1]; first compound 0.008 µg/mL, partner 2.57 µg/mL): 0.535
fitness ([1]; first compound 0.008 µg/mL, partner 5.14 µg/mL, one replicate): 0.419
